Measurements from PubChem BioAssay (NCI).
Where “and” joins values, the source holds several entries; their conditions need not be identical. Equal values may be shown once.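 Each compound was tested at five concentrations against cells in 96-well plates for 48 hours. The concentration for 50% growth inhibition is given as GI50. The concentration for full growth arrest is given as TGI.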

How the values were obtained:
Assay in all cases: NCI-60 cell line screen, 48 h
[1] = tested on: HOP-62 NSCLC
[2] = tested on: NCI-H23 lung
[3] = tested on: COLO 205 colon
[4] = tested on: LOX IMVI melanoma
[5] = tested on: SN12C renal
[6] = tested on: MALME-3M melanoma
[7] = tested on: SF-295 CNS
[8] = tested on: SNB-19 CNS
[9] = tested on: MDA-MB-231 breast
[10] = tested on: HS 578T breast

Structure (SMILES) | TGI [1] | TGI [2] | TGI [3] | TGI [4] | TGI [5] | TGI [6] | TGI [7] | TGI [8] | TGI [9] | GI50 [1] | GI50 [2] | GI50 [3] | GI50 [4] | GI50 [5] | GI50 [6] | GI50 [7] | GI50 [10] | TGI [10] | GI50 [8]
CCOC(=O)C1=C(Nc2ccc(Cl)c(Cl)c2)OC/C1=N\NS(=O)(=O)c1ccc(C)cc1 | > 100 µM | > 100 µM | > 100 µM | > 100 µM | > 100 µM | > 100 µM | > 100 µM | > 100 µM |  |  |  |  |  |  |  |  |  |  | 
Cc1cc(Cl)ccc1C1OC(=O)c2c1ccc1ccccc21 (configuration not stated) | > 100 µM | > 100 µM | > 100 µM | > 100 µM | > 100 µM | > 100 µM | > 100 µM | > 100 µM |  |  |  |  |  |  |  |  |  |  | 
O=C(NS(=O)(=O)c1ccccc1)C(Cc1ccccc1)C(Cc1ccccc1)C(=O)NS(=O)(=O)c1ccccc1 (configuration not stated) | > 100 µM | > 100 µM | > 100 µM | > 100 µM | > 100 µM | > 100 µM | > 100 µM | > 100 µM |  |  |  |  |  |  |  |  |  |  | 
CC1=C(/C=C/C(C)=C/C=C/C(C)=C/CO)C(C)(C)CCC1 | 47.5 µM | 54.8 µM | 38.3 µM | 43.5 µM | 60.8 µM | 29.1 µM | 58.3 µM | 69.4 µM | 78.5 µM |  |  |  |  |  |  |  |  |  | 
Nn1c(N=Nc2c(O)[nH]c3c(Cl)cc(Cl)cc23)n[nH]c1=S | > 100 µM | > 100 µM | > 100 µM | > 100 µM | > 100 µM | > 100 µM | > 100 µM | > 100 µM |  |  |  |  |  |  |  |  |  |  | 
COc1ccc2c(c1OC)C(=O)c1cnccc1C2=O | > 100 µM | > 100 µM | > 100 µM | > 100 µM | > 100 µM | > 100 µM | > 100 µM | > 100 µM |  |  |  |  |  |  |  |  |  |  | 
Cc1cccc(C(C)(C)C)c1NC(=O)CC1Sc2ccccc2NC1=O (configuration not stated) | > 100 µM | > 100 µM | 59.7 µM |  | > 100 µM | > 100 µM | > 100 µM | > 100 µM |  |  |  |  |  |  |  |  |  |  | 
O=C1C=CC(CC(=O)c2ccc3ccccc3c2)O1 (configuration not stated) | 36.6 µM | 46.7 µM | 31.9 µM | 35.8 µM | 36 µM | > 100 µM | > 100 µM | 76.8 µM |  |  |  |  |  |  |  |  |  |  | 
O=[N+]([O-])c1cccc(C2=NOC3C4CCC(C4)C23)c1 (configuration not stated) | > 100 µM | > 100 µM | > 100 µM |  | > 100 µM | > 100 µM | > 100 µM |  |  |  |  |  |  |  |  |  |  |  | 
O=C(O)c1ccccc1NC(=O)C1CCCCC1 | > 100 µM |  | > 100 µM | > 100 µM | > 100 µM | > 100 µM | > 100 µM | > 100 µM |  |  |  |  |  |  |  |  |  |  | 
CCC(Oc1ccc(OC)c2ccccc(=O)c12)C(=O)O (configuration not stated) | > 100 µM | > 100 µM | > 100 µM | > 100 µM | > 100 µM | > 100 µM | > 100 µM | > 100 µM |  |  |  |  |  |  |  |  |  |  | 
O=C(Nc1ccn(CCI)c(=O)n1)c1ccccc1 | > 100 µM |  | > 100 µM | > 100 µM | > 100 µM | > 100 µM | > 100 µM |  |  |  |  |  |  |  |  |  |  |  | 
CCCCCCC(/C=N/O)C(C)(O)CCC (configuration not stated) | > 100 µM | > 100 µM | > 100 µM | > 100 µM | > 100 µM | > 100 µM | > 100 µM | > 100 µM |  |  |  |  |  |  |  |  |  |  | 
COC(=O)C1=CC2OC1(C)CCC2=O (configuration not stated) | > 100 µM | > 100 µM | > 100 µM | > 100 µM | > 100 µM | > 100 µM | > 100 µM | > 100 µM |  |  |  |  |  |  |  |  |  |  | 
O=C1c2nc3n(c2C(=O)c2c1nc1n2CCC1)CCC3 | 15.9 µM | 7.09 µM | 18.5 µM | 13.4 µM | 14.5 µM | 3.54 µM and 2.17 µM | 17.9 µM | 27.9 µM |  | 5.19 µM | 3.08 µM | 4.13 µM | 3.75 µM | 9.48 µM | 2 µM | 6.72 µM |  |  | 
O=C(NO)c1ccc(O)c(O)c1 | > 100 µM | > 100 µM | > 100 µM |  | > 100 µM | > 100 µM | > 100 µM | > 100 µM |  |  |  |  |  |  |  |  |  |  | 
O=S(=O)(C/C(=N\O)c1ccccc1)c1ccccc1 | > 100 µM | > 100 µM | > 100 µM | > 100 µM | > 100 µM | > 100 µM | > 100 µM | > 100 µM |  |  |  |  |  |  |  |  |  |  | 
CCCNc1nc2ccccc2c2c1S(=O)(=O)c1ccc(Cl)cc1C2=O | > 50 µM | > 50 µM | > 50 µM | > 50 µM | 3.24 µM | > 50 µM | > 50 µM | > 50 µM |  | 1.77 µM | 1.66 µM | 2.1 µM | 1.28 µM | 0.648 µM | 1.46 µM | 1.67 µM | 1.21 µM | > 50 µM | 1.4 µM

Structure (SMILES) | TGI [1] | TGI [2] | TGI [3] | TGI [4] | TGI [5] | TGI [6] | TGI [7] | TGI [8] | TGI [9] | GI50 [1] | GI50 [2] | GI50 [3] | GI50 [4] | GI50 [5] | GI50 [6] | GI50 [7] | GI50 [10] | TGI [10] | GI50 [8]
CNC(=O)OCC1C2=C(C(=O)C(C)=C(N)C2=O)N2CC3C(N3C)C12OC (configuration not stated) | > 100 µM | 16.3 µM | 31.7 µM | 33.9 µM | > 100 µM | 18.5 µM | 67 µM | > 100 µM | > 100 µM |  |  |  |  |  |  |  |  |  | 
O=[N+]([O-])c1ccc(Cl)cc1C1SCc2nc3ccccc3n21 (configuration not stated) | > 100 µM | > 100 µM | > 100 µM |  | > 100 µM | > 100 µM | > 100 µM | > 100 µM |  |  |  |  |  |  |  |  |  |  | 
CC(C)c1cc(OCC(O)CO)cc(C(C)C)c1 (configuration not stated) | > 100 µM | > 100 µM | > 100 µM | > 100 µM | > 100 µM | > 100 µM | > 100 µM | > 100 µM |  |  |  |  |  |  |  |  |  |  | 
Nc1n[nH]c(CCc2nc(N)n[nH]2)n1 | > 100 µM | > 100 µM | > 100 µM | > 100 µM | > 100 µM | > 100 µM | > 100 µM | > 100 µM |  |  |  |  |  |  |  |  |  |  | 
O=C(CC1C(=O)Nc2ccccc2S1=O)Nc1ccc(Cl)cc1 (configuration not stated) | > 100 µM | > 100 µM | > 100 µM | > 100 µM | > 100 µM | > 100 µM | > 100 µM | > 100 µM |  |  |  |  |  |  |  |  |  |  | 
O=C(/C=C1/Nc2ccc([N+](=O)[O-])cc2NC1O)c1cccc([N+](=O)[O-])c1 (configuration not stated) | > 100 µM | > 100 µM | > 100 µM | > 100 µM | > 100 µM | > 100 µM | 38.3 µM | > 100 µM |  |  |  |  |  |  |  |  |  |  | 
CC1(C)OC(=O)C=C([O-])O1.CC1(C)OC(=O)C=C([O-])O1.CC[O-].CC[O-].[Ti+4] | > 100 µM | > 100 µM | > 100 µM | > 100 µM |  | > 100 µM | > 100 µM | > 100 µM |  | > 100 µM | > 100 µM | > 100 µM | > 100 µM |  | > 100 µM | > 100 µM |  |  | > 100 µM
CN(C)C(=S)/N=c1\ss/c(=N\S(=O)(=O)c2ccccc2)n1N(C)C | > 100 µM |  | > 100 µM |  | > 100 µM | > 100 µM |  | > 100 µM |  |  |  |  |  |  |  |  |  |  | 
COC(=O)CCC(=O)NC1C2CC3CC(C2)CC1C3 (configuration not stated) | > 100 µM | > 100 µM | > 100 µM | > 100 µM | > 100 µM | > 100 µM | > 100 µM | > 100 µM |  |  |  |  |  |  |  |  |  |  | 
Cc1cccc(Nc2cnc(N)nc2N)c1 | > 100 µM | > 100 µM | > 100 µM | > 100 µM | > 100 µM | > 100 µM | > 100 µM | > 100 µM | > 100 µM |  |  |  |  |  |  |  |  |  | 
O=C(O)CCSC(=O)Nc1ccc(N=Nc2ccccc2)cc1 | > 100 µM | > 100 µM | > 100 µM | > 100 µM | > 100 µM | > 100 µM | > 100 µM | > 100 µM |  |  |  |  |  |  |  |  |  |  | 
CCC(=O)N/N=C(\C=C\c1cccc(O)c1)c1sc(Nc2ccc(C)cc2[N+](=O)[O-])nc1C | > 100 µM | 6.72 µM | > 100 µM | > 100 µM | > 100 µM | > 100 µM | > 100 µM | > 100 µM |  |  |  |  |  |  |  |  |  |  | 
O=C(O)C1=C(C(=O)Nc2ccc(NC(=O)C3=C(C(=O)O)C4C=CC3C4)cc2)C2C=CC1C2 | > 100 µM | > 100 µM | > 100 µM | > 100 µM | > 100 µM | > 100 µM | > 100 µM | > 100 µM |  |  |  |  |  |  |  |  |  |  | 
CC12Oc3ccc4ccccc4c3CC1Cc1c(ccc3ccccc13)O2 (configuration not stated) | > 100 µM | > 100 µM | > 100 µM | > 100 µM |  | 17 µM | > 100 µM | > 100 µM |  |  |  |  |  |  |  |  |  |  | 
COc1cc2c(c(OC3OC(CO)C(O)C(O)C3O)c1)C(=O)CC(c1ccc(O)cc1)O2 (configuration not stated) |  | > 100 µM | > 100 µM | > 100 µM | > 100 µM |  | > 100 µM | > 100 µM | > 100 µM |  |  |  |  |  |  |  |  | > 100 µM | 
COC1=C2CC(C)CC(OC)C(O)C(C)/C=C(\C)C(OC(N)=O)C(OC)/C=C\C=C(/C)C(=O)NC(=C(/C=N/N3CCCCC3)C1=O)C2=O (configuration not stated) | 44.5 µM | 35.3 µM | 8.25 µM | 22.3 µM | 15.5 µM | 28.7 µM | 30.1 µM | 41.9 µM |  |  |  |  |  |  |  |  |  |  | 
O=C1NC(=O)C2C1N(Cc1ccccc1)C(=O)N2Cc1ccccc1 (configuration not stated) | > 100 µM | > 100 µM | > 100 µM | > 100 µM | > 100 µM | > 100 µM | > 100 µM | > 100 µM |  |  |  |  |  |  |  |  |  |  | 
c1ccc2c(c1)C1=NCCN1c1ccccc1-2 | 13.3 µM | 6.65 µM | 2.77 µM | 10.4 µM | 9.92 µM | 6.77 µM | 31.4 µM | 16.2 µM |  |  |  |  |  |  |  |  |  |  | 
